Common to all, as to assay: NCI tumour cell line growth inhibition, 48 h
Test [1] has as its system SK-MEL-2.
Test [2] concerns NCI-H460.
Test [3] has as its system ACHN.
Test [4] has as its system OVCAR-3.
In test [5] the test system is DU-145.
In test [6] the test system is CCRF-CEM.
Test [7] deals with MDA-N.
For test [8], the system named is K562.
In test [9] the test system is Malme-3M.
Test [10] has as its system BT-549.
In test [11] the test system is SF-295.
In test [12] the test system is SF-268.
In test [13] the test system is UACC-62.
For test [14], the system named is NCI-H226.
The test system of test [15] is UACC-257.
In test [16] the test system is SF-539.
Test [17] concerns HL-60.
For test [18], the system named is Hs-578T.
Test [19] deals with HCT-116.

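Cells were grown in 96-well plates and exposed to each compound for 48 hours at five concentrations; endpoints were interpolated linearly between bracketing concentrations, or set to the highest concentration if not reached. GI50 is the concentration that inhibits growth by half.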 Activity calls are given as the source filed them. Rule as the data show it: active = GI50 up to about 1.1 µM and inactive = higher. Some results are limits rather than exact numbers.

Regarding `[O-][Cl+3]([O-])([O-])O.c1ccc(C2=NN2c2ccccc2)cc1`, the GI50 is > 100 µM (inactive) in [1]; 71.8 µM (inactive) in [2]; 0.927 µM (active) in test [3]; 84.9 µM (inactive) in test [4]; 5.89 µM (inactive) in [5]; > 100 µM (inactive) in test [6]. Moreover, the GI50 in [7] is 4.27 µM (inactive); in test [8] it was 2.32 µM (inactive); in test [9] it was 29.5 µM (inactive); in [10], > 100 µM (inactive); in test [11], > 100 µM (inactive); in test [12], 21.8 µM (inactive). For the same compound, the GI50 was 1.21 µM (inactive) in [13], 14.3 µM (inactive) in [14], 59.6 µM (inactive) in test [15] and 76.2 µM (inactive) in test [16].

Regarding `O[C@@H]1CCC[C@@H]2NC[C@@H](c3ccc4c(c3)OCO4)[C@H]12`, the GI50 in test [1], in test [2], in [3], in [4], in test [5] and in [6] was > 100 µM (inactive) throughout. For the same compound, the GI50 in test [17] was 96.4 µM (inactive); in [7], > 100 µM (inactive); in [8] it was > 100 µM (inactive); in test [9] it was > 100 µM (inactive); in test [18], 99.1 µM (inactive); in test [11], > 100 µM (inactive). Further, the GI50 in test [12], in test [13], in [14], in test [15] and in [16] was > 100 µM (inactive) throughout.

For `COc1ccc2c3c1OC1C(OC)(OC)C=C[C@@]4(Br)[C@@H](C2)N(CC2CC2)CC[C@]314` (stereo partly drawn), the GI50 is 38.5 µM (inactive) in test [1]; 62.7 µM (inactive) in [2]; > 100 µM (inactive) in [3]; 46.7 µM (inactive) in [4]; > 100 µM (inactive) in test [5]; 44 µM (inactive) in test [19]. Moreover, the GI50 in [6] was 86.9 µM (inactive); in test [17], > 100 µM (inactive); in [7] it was 49.5 µM (inactive); in [8] it was 52.8 µM (inactive); in [9], 37.1 µM (inactive); in [18], 41.7 µM (inactive). For the same compound, the GI50 was > 100 µM (inactive) in test [11]; 32.1 µM (inactive) in test [12]; 68.5 µM (inactive) in [13]; 58.5 µM (inactive) in test [14]; 69.8 µM (inactive) in test [15]; > 100 µM (inactive) in test [16].

For `O=C1C(Cl)=C(OCCCl)C(=O)c2c(O)ccc(O)c21`, the GI50 is 18.5 µM (inactive) in test [2]; 3.16 µM (inactive) in test [3]; 2.96 µM (inactive) in [4]; 17.9 µM (inactive) in test [5]; 0.755 µM (active) in test [19]; 0.0813 µM (active) in test [6]. Further, the GI50 is 0.0617 µM (active) in test [17]; 2.91 µM (inactive) in [7]; 0.267 µM (active) in [8]; 2.89 µM (inactive) in test [9]; 13.3 µM (inactive) in [10]; 17.5 µM (inactive) in test [11]. Moreover, the GI50 in [12] is 5.47 µM (inactive); in test [13], 3.88 µM (inactive); in test [14] it was 17 µM (inactive); in [15] it was 2.59 µM (inactive); in test [16] it was 17.3 µM (inactive).

As to `CO[C@H]1O[C@@H]2CO[C@@H](c3ccccc3)O[C@H]2[C@@H]2C/C=C\CCC[C@@]12O`, the GI50 in test [1] was 16 µM (inactive); in test [2], 16.8 µM (inactive); in [3], 17.3 µM (inactive); in [4], 16.3 µM (inactive); in [5], 20.7 µM (inactive); in test [19] it was 16.1 µM (inactive). In addition, the GI50 was 31 µM (inactive) in test [6]; 19.8 µM (inactive) in test [17]; 25.1 µM (inactive) in test [7]; 20 µM (inactive) in test [8]; 20.2 µM (inactive) in test [10]; 19.7 µM (inactive) in [11]. The GI50 in test [12] is 21.6 µM (inactive); in test [13], 15.7 µM (inactive); in [14], 20.7 µM (inactive); in test [15] it was 18.5 µM (inactive).

`O=C1N(CN2CCOCC2)CN(CN2CCOCC2)C(=O)N1Cc1ccccc1`: the GI50 is 16.3 µM (inactive) in test [1]; 32.6 µM (inactive) in test [2]; 32.5 µM (inactive) in test [3]; 23.9 µM (inactive) in [4]; 24.9 µM (inactive) in test [5]; 22.8 µM (inactive) in test [19]. Further, the GI50 in test [6] was 28.7 µM (inactive); in test [7], 18.2 µM (inactive); in test [8], 24 µM (inactive); in test [9], 15.2 µM (inactive); in [10], 21.6 µM (inactive); in [11] it was > 100 µM (inactive). Further, the GI50 was 22 µM (inactive) in test [12]; 22.2 µM (inactive) in test [13]; 37.1 µM (inactive) in test [14]; 21.7 µM (inactive) in [15]; 19.2 µM (inactive) in test [16].

On to `CC[C@]1(Cc2ccc(OC)c(OC)c2)C=[N+]([O-])O[C@H](OCc2ccccc2)[C@@H]1OC(C)=O`, for which the GI50 was 23 µM (inactive) in [1]; 31 µM (inactive) in test [2]; 27.6 µM (inactive) in [3]; 15.8 µM (inactive) in test [4]; 23.6 µM (inactive) in test [5]; 19.6 µM (inactive) in test [6]. Further, the GI50 is 16.6 µM (inactive) in [17]; 36.1 µM (inactive) in test [7]; 20.9 µM (inactive) in [8]; 20.7 µM (inactive) in [9]; 20.4 µM (inactive) in [18]; 53.6 µM (inactive) in test [11]. Further, the GI50 in [12] was 23.7 µM (inactive); in test [13], 26.2 µM (inactive); in [14], 19.3 µM (inactive); in test [15] it was 21.3 µM (inactive).

Turning to `N#C/C(C(=O)Nc1ccc(Cl)cc1)=C(/N)N1CCOCC1`, the GI50 in test [1] is > 100 µM (inactive); in test [2], > 100 µM (inactive); in test [3] it was > 100 µM (inactive); in test [4] it was 96.8 µM (inactive); in test [5], 94 µM (inactive); in test [19], > 100 µM (inactive). In addition, the GI50 in [6] was > 100 µM (inactive); in [7] it was 61.8 µM (inactive); in test [8], 61.2 µM (inactive); in test [10], > 100 µM (inactive); in test [11] it was > 100 µM (inactive); in test [13], 77.8 µM (inactive). Besides, the figures for the GI50 in [14], in test [15] and in [16] were > 100 µM (inactive), 47.4 µM (inactive) and > 100 µM (inactive), respectively.

For `COc1ccc2cc(C(C)C(=O)N3C(=O)OCC3(C)C)ccc2c1` (stereo not drawn), the GI50 was > 100 µM (inactive) in test [2]; > 100 µM (inactive) in [3]; > 100 µM (inactive) in [4]; > 100 µM (inactive) in test [5]; > 100 µM (inactive) in [19]; > 10 µM (inactive) in test [6]. The GI50 in test [17], in [7], in test [8], in test [9], in test [10] and in test [11] was > 100 µM (inactive) each time. The GI50 in [12], in test [13], in test [14] and in test [15] was > 100 µM (inactive) in each case.

The values above are taken from ChEMBL document CHEMBL1201862, “PubChem BioAssay data set” (2004).
